{
  "source": "patent US12350273B2",
  "about": "“Treatment of SMA” (Hoffmann-La Roche Inc., priority 2017, dated 2025)",
  "test_system": "FOXM1B/C transcript variants",
  "test": "FOXM1B/C mRNA expression in Cynomolgus monkey iPSCs (RT-qPCR)",
  "assay_type": "cell-based",
  "conditions": "24 h; for Mean FOXM1B/C relative mRNA expression (2-ΔΔCt vs control): Cynomolgus monkey iPSCs",
  "procedure": "FIG. 5A-FIG. 5B: Effect of RO7034067 on FOXM1 mRNA expression levels in human and Cynomolgus monkey iPSCs • Cells were treated with RO7034067 for 24 hours, and FOXM1 B/C transcript variants were analyzed by RT-PCR. Data represent means±SEM of 3 repetitions and are expressed as fold change vs. controls. IC50 values are indicated. FIG. 5A. human iPSCs. FIG. 5B. Cynomolgus monkey iPSCs\nHuman iPSCs (hIPS_Neo_Clone_1) were cultivated in mTeSR1 (Stem Cell Technologies) as standard medium and Cynomolgus monkey iPSCs (cips_54-1285_cFIB_Clone_8) in MT medium supplemented with 10 ng/ml ActivinA and 15 ng/ml FGF2.\nFor gene expression profiling, stem cells were detached with Accutase (Stem Cell Technologies) and plated in 12 well plates coated with Matrigel (BD Biosciences) in the respective standard medium supplemented with 10 μM Rock inhibitor Y-27632 (Sigma-Aldrich). In order to obtain enough RNA, monkey stem cells were seeded at 15000 cells/cm2 and human stem cells were seeded at 40000 cells/cm2 24 h prior to treatment. Thereafter stem cells were treated for 24 h with serial dilutions (1:5) of test items in fresh, pre-warmed medium in a concentration range from 0.64 nM till ˜10 μM. To stop the experiment, cells were lysed in QiaGen's lysis buffer RLT with beta-mercaptoethanol.\nHuman and Cynomolgus monkey mRNA expression was measured with customized primer and FAM fluorescently-labeled Universal Probe Library (UPL) probes from Roche or probes from Microsynth containing a 5′ FAM label and a 3′ terminal BlackHole Dark Quencher 1 (BHQ1). The sequences of the primer and FAM labeled probes are listed as follows:\nFor quantitative Real-Time-PCR, cells cultivated in a 12 well plate and treated with Roche-compounds for 24 h were lysed in 500 ul/well of QiaGen's lysis buffer RLT with beta-mercaptoethanol. Total RNA was extracted with the RNeasy Mini kit combined with DNase treatment on a solid support. RNA integrity was controlled by using Nanodrop absorption spectroscopy and microfluidic capillary array electrophoresis profiles from an Agilent Bioanalyzer\n2100. Between 300 ng to 800 ng of total RNA were reverse transcribed with oligo-dT primer and spiked MS2 RNA at 10 ng/uL final concentration using the Transcriptor First Strand cDNA Synthesis Kit (Roche Applied Science #04379012001) following the manufacturer's recommended protocol. The quantitative PCR was performed on a LightCycler 480 qPCR machine using 67.5 ng total RNA derived cDNA as input in a 20 μl mixture containing 1× LightCycler 480 Probes Master, 0.4 μM forward and reverse primers, and 0.2 μM FAM labeled hydrolysis probe. The temperature program consisted of pre-incubation at 95° C. for 10 min, followed by 50 cycles of amplification (95° C. for 10 s, 60° C. for 30 s, 72° C. for 5 s). Negative control reactions were conducted in the absence of cDNA template to confirm absence of cDNA contamination in the master mix. Measurements of Ct (cycle threshold)-values were performed for each sample-mRNA combination. Using the 2-ΔΔCt method (Livak K J et al. Method. Methods. 2001; 25(4):402-8), the data are presented as the fold change in gene expression normalized to an endogenous reference gene and relative to the untreated control. To derive individual ΔCt values, the Ct value for each target mRNA of each sample was normalized to the Ct value of the endogenous reference mRNA of GAPDH (glyceraldehyde-3-phosphate dehydrogenase). The […] was calculated by subtracting the ΔCt value of the vehicle-control group from the respective ΔCt value of each treatment group. Resultant expression ratios (2-ΔΔCt) mirrored treatment-related mRNA expression changes versus vehicle-controls. […] The model to derive the IC50 assumes that the dose response curves has a standard slope, equal to a Hill slope (or slope factor) of −1.0. Model equation: Y=Bottom+(Top-Bottom)/(1+10^((X-Log IC50))); with Y being the response data and X being log 10 concentrations in μM.",
  "data": [
    {"smiles": "Cc1cn2nc(-c3cc(=O)n4cc(N5CCNC6(CC6)C5)ccc4n3)cc(C)c2n1", "note": "[RO7034067, 7-(4,7-diazaspiro[2.5]octan-7-yl)-2-(2,8-dimethylimidazo[1,2-b]pyridazin-6-yl)pyrido[1,2-a]pyrimidin-4-one]", "values": [
      {"measurement": "Mean FOXM1B/C relative mRNA expression (2-ΔΔCt vs control)", "setting": "0.64 nM", "result": 0.967},
      {"measurement": "Mean FOXM1B/C relative mRNA expression (2-ΔΔCt vs control)", "setting": "3.2 nM", "result": 0.990},
      {"measurement": "Mean FOXM1B/C relative mRNA expression (2-ΔΔCt vs control)", "setting": "16 nM", "result": 0.963},
      {"measurement": "Mean FOXM1B/C relative mRNA expression (2-ΔΔCt vs control)", "setting": "80 nM", "result": 0.704},
      {"measurement": "Mean FOXM1B/C relative mRNA expression (2-ΔΔCt vs control)", "setting": "400 nM", "result": 0.176},
      {"measurement": "Mean FOXM1B/C relative mRNA expression (2-ΔΔCt vs control)", "setting": "2000 nM", "result": 0.023},
      {"measurement": "Mean FOXM1B/C relative mRNA expression (2-ΔΔCt vs control)", "setting": "10000 nM", "result": 0.037},
      {"measurement": "IC50", "setting": "Macaca fascicularis, iPSC, monkey iPSCs, read-out: IC50 on expression levels of FOXM1B/C", "result": 155, "unit": "nM"}
    ]}
  ]
}
